Values after ≈ are worked out from the molar mass of the structure shown. Values joined by “and” are separate entries in the source; they are usually repeats but may differ in a detail not shown here. Identical values can stand only once. Like-named read-outs stand apart in the source and are kept apart here.
Experiments:
[1] = system: HCT116 colon carcinoma cells
Procedure: (§4) Xenograft Tumor-Models: 100 athymic nu/nu female mice (6-8 weeks old) from CRL were allowed to acclimate for 4 days. […] The 3rd passage of cells with approximate 90% confluence was used for these experiments. Briefly, on Day 0, mice were inoculated with 0.1 ml (total 5×10^6 cells) of the respective cell-type as a cell suspension (50×10^6 cells/ml) by subcutaneous injection into the fat pad area near the mammary gland under light anesthesia. When the average tumor weight in all mice reached over 100 mg (day 10), 80 animals with an average tumor size of 130 mg were selected and were randomly divided into 8 groups.
(§5) A 20 G gavage needle was used for the oral treatment.
(§6) Tumor growth and body weight were monitored and recorded three times a week. Tumors were measured by determining the length and width of the tumor with a digital caliper. Tumor weight was estimated using the following formula: Tumor Weight (mg)=(w^2×1)×0.52 where w=width and l=length in mm of the tumor.
(§7) Experimental treatment may cause partial regression (PR) or complete regression (CR) of tumors. PR is defined when the tumor size is 50% or less than the starting (day 1) size but greater than 0.0 mg for three consecutive measurements during the course of the study. CR occurs when there is no measurable tumor mass for three consecutive measurements. Cures are defined when CR are maintained until the completion of the experiment.
(§8) Mice were sacrificed when their tumors reached the 1000 mm^3 endpoint volume. Treatment efficacy was determined as Log Cell Kill (LCK).
(§9) Toxic deaths are defined as deaths caused by compound treatment and not by advanced disease state. […] Non-tumor related deaths after this point are recorded, but not considered toxic deaths.
(§10) Briefly, the empirical distributions of T and Td were derived from B=1000 realisations of random selection of n individual animals with replacement from the set i=1, . . . , n of the appropriate group of mice containing n evaluable animals, estimating the mean tumor size for such selection of animals for each time-point, and linear regression analysis from a semi-log plot of such averages against time. Dead mice and mice with no measurable tumor size were treated as missing data and were ignored when calculating the average.

[2] = PAMPA permeability assay at pH 7.4; format: in vitro ADME
Procedure: (§1) The assays used for determining the properties of the kinase inhibitors were performed in accordance with standard procedures well known to those skilled in the art. For example, assays for determining inhibitory activity on CDKs or in cellular assays are described in WO 00/218962, WO 2005/026129, and WO 2005/063765. Solubility assays at pH 7.4 were essentially performed as described by Avdeef, A. in Pharmacokinetic Optimization in Drug Research; Testa, B.; van de Waterbeemd, H.; Folkers, G.; Guy, R. Eds.; Wiley-VHC: Zurich, 2001; pp 305-326. PAMPA permeability assays at pH 7.4 were essentially performed as described in Kansy et al., J. Med. Chem. 41: 1007-10, 1998.

[3] = Solubility assay at pH 7.4; format: physicochemical; details: pH 7.4, aqueous buffer
Procedure: as §1

[4] = system: cell lines A2780, HCT-116, HT-29, HepG2, NCI/ADR-RES, OVCAR3, H460, IMR-90, T98G, A549 among others; assay: Inhibition of proliferation in a set of cancer-model cell lines; format: cell-based; details: units (μM and nM) printed inside the value, read-out: IC50 values, inhibition of proliferation (range over cell lines)
Procedure: as §1

[5] = system: human A2780 ovarian tumor cells
Procedure: Compound P (as hydrochloric acid salt) was formulated in 30% PEG300/70% water, and Compound I (as hydrochloric acid salt) was formulated in 20% PEG300/80% D5W (5% dextrose water) and administered by oral gavage twice every day for 10 days (bid×10), while the Cytoxan control which was administered i.p. in saline every two days over a period of 10 days (q2 d×5): […]

H460 NSCLC = details: for Toxic Mortality: N=10; for Max % TGI (d): day 13
Procedure: as §4, §5, §6, §7, §8, §9, §10

[6] = system: human A2780 ovarian tumor cells; remark: listed apart in the source
[7] = system: CDK4/6-specific phosphorylation of Rb on serine 780; assay: In-cell Rb phosphorylation (immunoblot); format: cell-based, human; details: 1 h, read-out: IC50 (uM) - Rb-5 phosphorylation
Description: (§2) This set of assays represents CDKs involved in cell cycle progression (CDK1, 4/6), and the “regulatory CDK” (CDK9) which is involved in transcriptional regulation.
(§3) The following cancer cell lines were investigated in the course of these studies: A2780 (ovarian), HCT116 (colon), RPMI8226 (myeloma), SKMel28 (melanoma), Colo205 (colorectal), MDA-MB-435 (melanoma), MDA-MB-453 (breast, carcinoma), MDA-MB-468 (breast, adenocarcinoma), A549 (lung), Raji (lymphoma, Burkitt). Cell lines were obtained from public repositories.
CDK4/6-specific phosphorylation of Rb on serine 780 (Ser780phos). Asynchronous growing cells were treated with an appropriate concentration of test compound or DMSO for 1 hour. Proteins were extracted using the AllPrep RNA/Protein kit according to the manufacturer's recommendations (Qiagen, Germany). Rb was immunoprecipitated over night using Ab05 antibody (Oncogene Inc.). Proteins were separated by SDS-PAGE, blotted to PVDF membranes and analyzed with antibodies against total (sc-102; Santa Cruz) or Ser780-phosphorylated Rb proteins (Cell Signalling). Visualization and quantification was performed as above.

[8] = system: CDK9-specific phosphorylation of RNA polymerase II (RNAPII) on serine 2; assay: In-cell RNAPII phosphorylation (immunoblot); format: cell-based, human; details: 3 h
Procedure: as §3
CDK9-specific phosphorylation of RNA polymerase II (RNAPII) on Serine 2 (Ser2). Asynchronous cells were treated with an appropriate concentration of test compound or DMSO as a control. After 3 h incubation (37° C./5% CO2) cells were lysed with CLB-1 lysis buffer (Zeptosense, Switzerland), the lysate was cleared by centrifugation (10 min, 13000 rpm, RT) and subjected to SDS-PAGE. Total protein was blotted on PVDF membranes and analyzed using antibodies against S2-phosphorylated RNAPII (H5; Covance) or total RNAPII (N-20; Santa Cruz) as an expression control. Visualization was conducted using secondary Alexa680- or IR800-coupled antibodies (Molecular Probes) against mouse or rabbit Fc tails on the Odyssey-system (Licor). Specific bands were quantified and IC50 values of inhibition of RNAPII phosphorylation were estimated.

CDK6 = CDK6 (Homo sapiens, UniProt Q00534); assay: Biochemical CDK6 inhibition assay
Chain of CDK6 (Q00534 whole entry): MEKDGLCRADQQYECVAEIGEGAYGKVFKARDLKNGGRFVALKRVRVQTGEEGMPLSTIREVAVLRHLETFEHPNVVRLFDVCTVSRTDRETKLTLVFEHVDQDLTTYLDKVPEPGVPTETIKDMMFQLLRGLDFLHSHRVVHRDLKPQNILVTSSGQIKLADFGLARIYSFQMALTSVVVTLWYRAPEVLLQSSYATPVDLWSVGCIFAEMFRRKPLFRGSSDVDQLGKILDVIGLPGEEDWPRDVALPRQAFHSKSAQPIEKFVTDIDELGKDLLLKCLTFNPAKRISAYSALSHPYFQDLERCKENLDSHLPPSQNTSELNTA
Chain of CDK6 (P30281 whole entry partner): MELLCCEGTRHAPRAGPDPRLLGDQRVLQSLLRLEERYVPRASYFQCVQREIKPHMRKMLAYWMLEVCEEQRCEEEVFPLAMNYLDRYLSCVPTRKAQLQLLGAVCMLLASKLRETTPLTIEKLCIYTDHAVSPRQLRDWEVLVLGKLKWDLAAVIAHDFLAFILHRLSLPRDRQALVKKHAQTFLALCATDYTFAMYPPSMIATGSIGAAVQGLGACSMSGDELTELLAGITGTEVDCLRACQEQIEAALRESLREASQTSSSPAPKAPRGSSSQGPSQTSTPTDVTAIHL
Procedure: as §1

[9] = system: CDK1-dependent Eg-5 phosphorylation on threonine 927; assay: In-cell Eg-5 phosphorylation (immunoblot); format: cell-based, human; details: 1 h
Description: as §2, §3
CDK1-dependent Eg-5 phosphorylation on threonine 927 (Thr927phos). Thr927phos was investigated by arresting cells over night in G2/M phase with 25 ng/ml nocodazole (optimized final concentration) followed by treatment with DMSO as control or an appropriate concentration of test compound for 1 hour. Detached as well as adherent cells were collected and lysed with CLB-1 lysis buffer. the lysate cleared by centrifugation and subjected to SDS-PAGE. The proteins were blotted on PVDF membranes and subsequently analyzed by antibodies against total Eg-5 (Becton Dickinson) and Eg-5 Thr927phos (Bio legend). Visualization and estimation of IC50 was conducted as above.

[10] = HCT116, 100 [93] mg/kg po qdx10
[11] = 30 [28] mg/kg po bidx10, day 10

## CC(C)c1nn(-c2c(Cl)cccc2Cl)c2nc(Cc3ccc(CN4CCCC4)c(O)c3)[nH]c(=O)c12 [Compound P, 1-(2,6-dichlorophenyl)-6-(3-hydroxy-4-pyrrolidinomethyl-phenyl)methyl-3-isopropyl-pyrazolo[3,4-d]pyrimidin-4-one]
[1]; HCT116, 40 [37] mg/kg po qdx10
  LCK ± CI (95%) (Td: 6.8 d): 0.23 ± 0.11 and 0.23
[1]; HCT116, 40 [37] mg/kg po qdx10, day 20
  Max % TGI (d): 36.2 (20) %
[1]; HCT116, 70 [65] mg/kg po qdx10
  LCK ± CI (95%) (Td: 6.8 d): 0.41 ± 0.22 and 0.41
[1]; HCT116, 70 [65] mg/kg po qdx10, day 32
  Max % TGI (d): 50.2 (32) %
[1]; [10]
  LCK ± CI (95%) (Td: 6.8 d): 0.38 ± 0.13 and 0.38
  Toxic Mortality: 1/10
[1]; HCT116, 100 [93] mg/kg po qdx10, day 16
  Max % TGI (d): 60.1 (16) %
[1]; mouse, in vivo, po
  Max % BW Loss (d): 17.3 (16) %
[2]
  permeability in a PAMPA assay: about 57%
[3]
  solubility: ~210 µM (≈ 108 µg/mL)
[4]
  IC50: 0.016 to 1.6 µM
[5]; 15 [14] mg/kg po bidx10
  LCK ± CI (95%) (Td: 2.1 d): 0.20 ± 0.16 and 0.20
[5]; 15 [14] mg/kg po bidx10, N=10
  Toxic Mortality: 0
[5]; 15 [14] mg/kg po bidx10, day 10
  Max % TGI (d): 34 (10) %
[5]; 15 [14 free base] mg/kg po bidx10, HCl salt, day 6
  Max % BW Loss (d): 0 (6) %
[5]; 30 [28] mg/kg po bidx10
  LCK ± CI (95%) (Td: 2.1 d): 0.44 ± 0.19 and 0.44
[5]; 30 [28] mg/kg po bidx10, N=10
  Toxic Mortality: 0
[5]; [11]
  Max % BW Loss (d): 0.1 (10) %
  Max % TGI (d): 54 (10) %
[5]; 50 [47] mg/kg po bidx10
  LCK ± CI (95%) (Td: 2.1 d): 1.06 ± 0.48 and 1.06
[5]; 50 [47] mg/kg po bidx10, N=10
  Toxic Mortality: 0
[5]; 50 [47] mg/kg po bidx10, day 13
  Max % TGI (d): 81 (13) %
[5]; 50 [47] mg/kg po bidx10, day 15
  Max % BW Loss (d): 4.7 (15) %
H460 NSCLC; H460, 40 [37] mg/kg po qdx10
  LCK ± CI (95%) (Td: 2.6 d): 0.22 ± 0.12 and 0.22
  Toxic Mortality: 0
  Max % TGI (d): 29.6 (13) %
H460 NSCLC; H460, 70 [65] mg/kg po qdx10
  LCK ± CI (95%) (Td: 2.6 d): 0.26 ± 0.12 and 0.26
  Toxic Mortality: 0
  Max % TGI (d): 33.9 (13) %
H460 NSCLC; H460, 100 [93] mg/kg po qdx10
  LCK ± CI (95%) (Td: 2.6 d): 0.54 ± 0.17 and 0.48 and 0.54
  Toxic Mortality: 0
  Max % TGI (d): 48.7 (13) %
H460 NSCLC; mouse, in vivo, po
  Max % BW Loss (d): 1.0 (8) % and 0% and 7.4 (13) %
[6]; 40 [37] mg/kg po qdx10
  LCK ± CI (95%) (Td: 1.7 d): 0.34 ± 0.21 and 0.34
[6]; 40 [37] mg/kg po qdx10, N=10
  Toxic Mortality: 0
[6]; 40 [37] mg/kg po qdx10, day 11
  Max % TGI (d): 46.2 (11) %
[6]; 70 [65] mg/kg po qdx10
  LCK ± CI (95%) (Td: 1.7 d): 0.75 ± 0.46 and 0.75
[6]; 70 [65] mg/kg po qdx10, N=10
  Toxic Mortality: 0
[6]; 70 [65] mg/kg po qdx10, day 11
  Max % TGI (d): 61.1 (11) %
[6]; 100 [93] mg/kg po qdx9
  LCK ± CI (95%) (Td: 1.7 d): 1.78 ± 0.56 and 1.78
  Toxic Mortality: 1/10
[6]; 100 [93] mg/kg po qdx9, day 11
  Max % TGI (d): 83.9 (11) %

## COc1ccc(F)c(F)c1C(=O)c1cnc(NC2CCN(S(C)(=O)=O)CC2)nc1N [Compound R547]
[1]; HCT116, 100 mg/kg po qdx10 (R547 suspension)
  LCK ± CI (95%) (Td: 6.8 d): 0.70 ± 0.28
[1]; HCT116, 100 mg/kg po qdx10 (R547 suspension), day 12
  Max % BW Loss (d): 14.5 (12) %
[1]; HCT116, 100 mg/kg po qdx10 (R547 suspension), day 16
  Max % TGI (d): 72.8 (16) %
[7]; A2780 cells
  IC50: ~0.1 µM
[7]; Colo205 cells
  IC50: ~0.1 µM
[7]; HCT116 cells
  IC50: ~0.1 µM
[7]; MDA-MB-435 cells
  IC50: ~0.3 µM
[7]; RPMI8226 cells
  IC50: ~0.3 µM
[7]; Sk-mel-28 cells
  IC50: ~0.1 µM
[8]; A2780 cells
  IC50: ~1 µM
[8]; Colo205 cells
  IC50: ~0.5 µM
[8]; HCT116 cells
  IC50: ~0.3 µM
[8]; MDA-MB-468 cells
  IC50: ~0.3 µM
[8]; RPMI8226 cells
  IC50: ~0.5 µM
[8]; Sk-mel-28 cells
  IC50: ~0.3 µM
CDK6
  IC50: ~10 nM
H460 NSCLC; H460, 40 mg/kg po q2dx5
  LCK ± CI (95%) (Td: 2.6 d): 0.48 ± 0.20 and 0.48
  Max % TGI (d): 47.5 (13) %
H460 NSCLC; H460, 40 mg/kg po q2dx5, day 8
  Max % BW Loss (d): 1.3 (8) %
[6]; 100 mg/kg po qdx1
  LCK ± CI (95%) (Td: 1.7 d): 1.05 ± 0.56
[6]; 100 mg/kg po qdx1 (planned qdx10), day 9
  Max % BW Loss (d): 7.5 (9) %
[6]; 100 mg/kg po qdx1, day 11
  Max % TGI (d): 68.5 (11) %
[9]; A549 cells
  IC50: ~0.03 µM
[9]; A2780 cells
  IC50: ~0.01 µM
[9]; Colo205 cells
  IC50: ~0.05 µM
[9]; HCT116 cells
  IC50: ~0.1 µM
[9]; MDA-MB-435 cells
  IC50: ~0.1 µM
[9]; MDA-MB-453 cells
  IC50: ~0.1 µM
[9]; RPMI8226 cells
  IC50: ~0.05 µM
[9]; Raji cells
  IC50: ~0.1 µM

## O=P1(N(CCCl)CCCl)NCCCO1 (stereo not shown) [Cytoxan, cyclophosphamide]
[5]; 100 mg/kg ip q2dx5
  LCK ± CI (95%) (Td: 2.1 d): 3.56 ± 0.43 and 3.56
[5]; 100 mg/kg ip q2dx5, N=10
  Cure: 0
  Toxic Mortality: 0
[5]; 100 mg/kg ip q2dx5, day 10
  Max % BW Loss (d): 5.9 (10) %
[5]; 100 mg/kg ip q2dx5, day 13
  Max % TGI (d): 98 (13) %
[5]; 100 mg/kg ip q2dx5, mice with complete regression, N=10
  CR: 5
[5]; 100 mg/kg ip q2dx5, mice with partial regression, N=10
  PR: 5

— patent US8304418B2, “Pyrazolopyrimidinone kinase inhibitor” (Agennix AG, priority 2007, dated 2012)
